EPA's CvTdb concentration-time database

Legend:
[1] = system: Rat; test: concentration in brain after dosing; details: 0.75 h; dosed: 2-Methyltetrahydrofuran; 40 mg/kg; iv; Male; Harlan Sprague Dawley
[2] = system: Rat; test: concentration in brain after dosing; details: 1.5 h; dosed: 2-Methyltetrahydrofuran; 40 mg/kg; iv; Male; Harlan Sprague Dawley
[3] = system: Rat; test: concentration in plasma after dosing; details: 1.5 h; dosed: 2-Methyltetrahydrofuran; 40 mg/kg; iv; Male; Harlan Sprague Dawley
[4] = system: Rat; test: concentration in plasma after dosing; details: 0.75 h; dosed: 2-Methyltetrahydrofuran; 40 mg/kg; iv; Male; Harlan Sprague Dawley
[5] = system: Rat; test: concentration in plasma after dosing; details: 6 h; dosed: 2-Methyltetrahydrofuran; 40 mg/kg; iv; Male; Harlan Sprague Dawley
[6] = system: Rat; test: concentration in plasma after dosing; details: 7 min; dosed: 2-Methyltetrahydrofuran; 40 mg/kg; iv; Male; Harlan Sprague Dawley
[7] = system: Rat; test: concentration in liver after dosing; details: 1 h; dosed: Fluorotelomer alcohol 8+2; 24 mg/kg; oral; Male; Harlan Sprague Dawley
[8] = system: Rat; test: concentration in brain after dosing; details: 3 h; dosed: Fluorotelomer alcohol 8+2; 24 mg/kg; oral; Male; Harlan Sprague Dawley
[9] = system: Rat; test: concentration in kidney after dosing; details: 12 h; dosed: Fluorotelomer alcohol 8+2; 80 mg/kg; oral; Female; Harlan Sprague Dawley
[10] = system: Rat; test: concentration in plasma after dosing; details: 4 h; dosed: Gemfibrozil; 50 mg/kg; oral; Male; Sprague-Dawley
[11] = system: Rat; test: concentration in plasma after dosing; details: 18 h; dosed: Gemfibrozil; 50 mg/kg; oral; Male; Sprague-Dawley
[12] = system: Rat; test: concentration in plasma after dosing; details: 0.25 h; dosed: Perfluorohexanoic Acid; 40 mg/kg; iv; Male; F344
[13] = system: Rat; test: concentration in plasma after dosing; details: 0.5 h; dosed: Perfluorohexanoic Acid; 80 mg/kg; oral; Male; Harlan Sprague Dawley
[14] = system: Rat; test: concentration in kidney after dosing; details: 1 h; dosed: Perfluorohexanoic Acid; 80 mg/kg; oral; Female; Harlan Sprague Dawley
[15] = system: Rat; test: concentration in plasma after dosing; details: 1 h; dosed: Perfluorohexanoic Acid; 80 mg/kg; oral; Male; Harlan Sprague Dawley
[16] = system: Rat; test: concentration in kidney after dosing; details: 6 h; dosed: Perfluorohexanoic Acid; 80 mg/kg; oral; Female; Harlan Sprague Dawley
[17] = system: Rat; test: concentration in plasma after dosing; details: 1.5 h; dosed: Perfluorohexanoic Acid; 40 mg/kg; iv; Male; F344
[18] = system: Rat; test: concentration in plasma after dosing; details: dosed: Perfluorohexanoic Acid, 40 mg/kg, iv, Male, F344
[19] = system: Rat; test: concentration in plasma after dosing; details: 1 h; dosed: Perfluorohexanoic Acid; 40 mg/kg; iv; Female; Harlan Sprague-Dawley
[20] = system: Rat; test: concentration in kidney after dosing; details: 12 h; dosed: Perfluorohexanoic Acid; 80 mg/kg; oral; Male; Harlan Sprague Dawley
[21] = system: Rat; test: concentration in liver after dosing; details: 864 h; dosed: Perfluorooctane Sulfonate; 2 mg/kg; oral; Female; Harlan Sprague Dawley
[22] = system: Rat; test: concentration in liver after dosing; details: 1848 h; dosed: Perfluorooctane Sulfonate; 2 mg/kg; oral; Female; Harlan Sprague Dawley
[23] = system: Rat; test: concentration in brain after dosing; details: 6 h; dosed: Perfluorooctane Sulfonate; 20 mg/kg; oral; Female; F344
[24] = system: Rat; test: concentration in brain after dosing; details: 1848 h; dosed: Perfluorooctane Sulfonate; 20 mg/kg; oral; Male; Harlan Sprague Dawley
[25] = system: Rat; test: concentration in brain after dosing; details: 864 h; dosed: Perfluorooctane Sulfonate; 20 mg/kg; oral; Female; F344
[26] = system: Rat; test: concentration in liver after dosing; details: 3360 h; dosed: Perfluorooctane Sulfonate; 2 mg/kg; oral; Female; Harlan Sprague Dawley
[27] = system: Rat; test: concentration in plasma after dosing; details: 864 h; dosed: Perfluorooctane Sulfonate; 2 mg/kg; oral; Female; Harlan Sprague Dawley
[28] = system: Rat; test: concentration in kidney after dosing; details: 24 h; dosed: Perfluorooctane Sulfonate; 2 mg/kg; oral; Female; Harlan Sprague Dawley
[29] = system: Rat; test: concentration in kidney after dosing; details: 24 h; dosed: Perfluorooctane Sulfonate; 20 mg/kg; oral; Male; Harlan Sprague Dawley
[30] = system: rat; test: concentration in blood after dosing; details: dosed: trichloroethylene

CC1CCCO1 (stereo unspecified) [2-Methyltetrahydrofuran]
Details | concentration in brain [ng/mL] | concentration in plasma [ng/mL]
[1] | 15800 | –
[2] | 7510 | –
[3] | – | 11000
[4] | – | 31600
[5] | – | 10.8
[6] | – | 45700

O=C(O)CCC(F)(F)C(F)(F)C(F)(F)C(F)(F)C(F)(F)C(F)(F)C(F)(F)F [Fluorotelomer acid 7+3]
Details | concentration in brain [ng/g] | concentration in kidney [ng/g] | concentration in liver [ng/g]
[7] | – | – | 693
[8] | 463 | – | –
[9] | – | 2750 | –

Cc1ccc(C)c(OCCCC(C)(C)C(=O)O)c1 [Gemfibrozil]
Details | concentration in plasma [ng/mL]
[10] | 2860
[11] | 1100

O=C(O)C(F)(F)C(F)(F)C(F)(F)C(F)(F)C(F)(F)F [Perfluorohexanoic Acid]
Details | concentration in kidney [ng/g] | concentration in plasma [ng/mL]
[12] | – | 6480
[13] | – | 105000
[14] | 85800 | –
[15] | – | 152000
[16] | 9420 | –
[17] | – | 320
[19] | – | 1240
[20] | 1990 | –

[18]
Details | concentration in plasma [ng/mL]
0.5 h | 14500
12 h | 35.7

O=S(=O)([O-])C(F)(F)C(F)(F)C(F)(F)C(F)(F)C(F)(F)C(F)(F)C(F)(F)C(F)(F)F [Perfluorooctane Sulfonate]
Details | concentration in brain [ng/g] | concentration in kidney [ng/g] | concentration in liver [ng/g] | concentration in plasma [ng/mL]
[21] | – | – | 9930 | –
[22] | – | – | 9070 | –
[23] | 3990 | – | – | –
[24] | 660 | – | – | –
[25] | 2730 | – | – | –
[26] | – | – | 4340 | –
[27] | – | – | – | 1490
[28] | – | 9700 | – | –
[29] | – | 82400 | – | –

ClC=C(Cl)Cl [trichloroethylene]
[30], inhalation
Details | concentration in blood [ng/mL]
0.1294 h, 600.4 ppm, duration: 4 hr, female, Fischer-344 | 21900
0.1299 h, 50 ppm, duration: 2 hr, male, Sprague Dawley | 443
0.1617 h, 50 ppm, duration: 2 hr, male, Sprague Dawley | 402
0.2483 h, 50 ppm, duration: 2 hr, male, Sprague Dawley | 454
0.3289 h, 50 ppm, duration: 2 hr, male, Sprague Dawley | 492
0.4153 h, 50 ppm, duration: 2 hr, male, Sprague Dawley | 352
0.4974 h, 50 ppm, duration: 2 hr, male, Sprague Dawley | 493
0.5081 h, 600.4 ppm, duration: 4 hr, female, Fischer-344 | 15900
0.7511 h, 50 ppm, duration: 2 hr, male, Sprague Dawley | 433
1.002 h, 50 ppm, duration: 2 hr, male, Sprague Dawley | 555
1.016 h, 600.4 ppm, duration: 4 hr, female, Fischer-344 | 9420
1.252 h, 50 ppm, duration: 2 hr, male, Sprague Dawley | 512
1.531 h, 600.4 ppm, duration: 4 hr, female, Fischer-344 | 5750
2.018 h, 600.4 ppm, duration: 4 hr, female, Fischer-344 | 4750
110 s, 50 ppm, duration: 2 hr, male, Sprague Dawley | 206
219 s, 50 ppm, duration: 2 hr, male, Sprague Dawley | 267
350 s, 50 ppm, duration: 2 hr, male, Sprague Dawley | 337

[30], oral
Details | concentration in blood [ng/mL]
0.1447 h, 18 mg/kg, male, Wistar | 10200
0.1716 h, 7.6 mg/kg, female, F344 | 1400
0.1747 h, 18 mg/kg, male, Wistar | 7730
0.2208 h, 18 mg/kg, male, Wistar | 5020
0.2739 h, 18 mg/kg, male, Wistar | 3760
0.3228 h, 18 mg/kg, male, Wistar | 2790
0.3309 h, 7.6 mg/kg, female, F344 | 494
0.3794 h, 18 mg/kg, male, Wistar | 2110
0.4319 h, 18 mg/kg, male, Wistar | 1710
0.5005 h, 7.6 mg/kg, female, F344 | 296
0.5204 h, 18 mg/kg, male, Wistar | 1350
0.7693 h, 18 mg/kg, male, Wistar | 957
1.014 h, 18 mg/kg, male, Wistar | 768
1.512 h, 18 mg/kg, male, Wistar | 503
2.017 h, 18 mg/kg, male, Wistar | 333
2.518 h, 18 mg/kg, male, Wistar | 321
3.02 h, 18 mg/kg, male, Wistar | 214
3.529 h, 18 mg/kg, male, Wistar | 59.6
4.027 h, 18 mg/kg, male, Wistar | 47.7
125 s, 7.6 mg/kg, female, F344 | 1770
143 s, 18 mg/kg, male, Wistar | 11100
266 s, 18 mg/kg, male, Wistar | 13600
296 s, 7.6 mg/kg, female, F344 | 2100
355 s, 18 mg/kg, male, Wistar | 13000
